Patent US12617779B2, “Self degradation-type CDK9 inhibitor prodrug and liposome encapsulating same” (Sumitomo Pharma Co., Ltd., priority 2021, dated 2026)

Legend:
[1] = Evaluation of conversion rate to active form in buffer solution (Experimental Example 1); format: physicochemical; conditions: for Stability in buffer solution at pH 5: up to 2 or 3 hours
Procedure: For Examples 1 to 16 and Comparative Examples 1 to 14, the attrition rate of the test compound and the conversion rate of the test compound to Alvocidib in a buffer solution were calculated by the following method.
Examples 1 to 16 and Comparative Examples 1 to 14 were each left in buffer solutions adjusted to pH 5.0, 5.5, 6.0, 6.5, 7.0 and 7.4, respectively, at a concentration of 25 umol/L at 37° C. After 0, 0.5, 1, 2 and 3 hours, the residual rates of the compounds of Examples […] and the production rate of Alvocidib were determined by HPLC.
The buffer solutions used at each pH are as follows. • pH 5.0: 50 mM citrate buffer solution (pH 5.0) • pH 5.5: 50 mM citrate buffer solution (pH 5.5) • pH 6.0: 50 mM phosphate buffer solution (pH 6.0) • pH 6.5: 50 mM phosphate buffer solution (pH 6.5) • pH 7.0: 50 mM phosphate buffer solution (pH 7.0) • pH 7.4: 50 mM phosphate buffer solution (pH 7.4)
(§1) The measurement conditions for HPLC are as follows.

[2] = Stability evaluation of solution formulation (Experimental Example 2); format: physicochemical; conditions: for Stability / conversion to Alvocidib in solution formulation at pH 3: pH 3, 5° C.; for Production rate of Alvocidib / Residual rate: solution formulation
Procedure: For Example 1, Example 2, Example 5, Example 6, Comparative Example 13 and Comparative Example 14, the attrition rate of the test compound and the conversion rate of the test compound to Alvocidib in a solution formulation were calculated by the following method.
Example 1, Example 2, Example 5, Example 6, Comparative Example 13 and Comparative Example 14 were each added to buffer solutions adjusted to pH 3.0, 4.0 and 5.0, respectively, at a concentration of 0.1 mg/mL, and left at 5° C. After 0, 1, 2 and 4 weeks, the residual rates of the compounds of Example 1, Example 2, […], Comparative Example 13 and Comparative Example 14 and the production rate of Alvocidib were determined by HPLC.
The buffer solutions used at each pH are as follows. • pH 3.0: 5 mM tartrate buffer solution/10% sucrose solution (pH 3.0) • pH 4.0: 5 mM tartrate buffer solution/10% sucrose solution (pH 4.0) • pH 5.0: 5 mM tartrate buffer solution/10% sucrose solution (pH 5.0)
as §1
• column: Acquity UPLC BEH C18, 1.7 um, 50×2.1 mm • column temperature: 40° C. • mobile phase: • A: water containing 0.1% trifluoroacetic acid • B: acetonitrile • A/B (min): • 80/20(0)→75/25(3)→0/100(3.5)→0/100(4)→80/20(4.01)→80/20(5) • flow rate: 0.8 mL/min • detection: ultraviolet visible detector, measurement wavelength 254 nm • injection: 3 μL

## CN1CC[C@H](c2c(OC(=O)N(C)CCN)cc(O)c3c(=O)cc(-c4ccccc4Cl)oc23)[C@H](O)C1 [Comparative Example 13, reference compound]
[1]; pH5.0, 0 hr
  Production rate of Alvocidib: 0.0%
  Residual rate: 99.8%
[1]; pH 5, 37° C.
  Stability in buffer solution at pH 5: unstable
[1]; pH5.0, 0.5 hr
  Production rate of Alvocidib: 2.2%
  Residual rate: 96.0%
[1]; pH5.0, 1 hr
  Production rate of Alvocidib: 4.1%
  Residual rate: 94.0%
[1]; pH5.0, 2 hr
  Production rate of Alvocidib: 8.3%
  Residual rate: 90.8%
[1]; pH5.0, 3 hr
  Production rate of Alvocidib: 12.3%
  Residual rate: 86.5%
[1]; pH5.5, 0 hr
  Production rate of Alvocidib: 0.0%
  Residual rate: 98.3%
[1]; pH5.5, 0.5 hr
  Production rate of Alvocidib: 6.5%
  Residual rate: 91.3%
[1]; pH5.5, 1 hr
  Production rate of Alvocidib: 11.9%
  Residual rate: 85.5%
[1]; pH5.5, 2 hr
  Production rate of Alvocidib: 22.6%
  Residual rate: 73.9%
[1]; pH5.5, 3 hr
  Production rate of Alvocidib: 32.2%
  Residual rate: 64.7%
[1]; pH6.0, 0 hr
  Production rate of Alvocidib: 0.0%
  Residual rate: 98.7%
[1]; pH6.0, 0.5 hr
  Production rate of Alvocidib: 23.8%
  Residual rate: 72.9%
[1]; pH6.0, 1 hr
  Production rate of Alvocidib: 40.3%
  Residual rate: 56.3%
[1]; pH6.0, 2 hr
  Production rate of Alvocidib: 63.0%
  Residual rate: 30.4%
[1]; pH6.0, 3 hr
  Production rate of Alvocidib: 75.5%
  Residual rate: 16.8%
[1]; pH6.5, 0 hr
  Production rate of Alvocidib: 0.2%
  Residual rate: 99.5%
[1]; pH6.5, 0.5 hr
  Production rate of Alvocidib: 51.7%
  Residual rate: 42.2%
[1]; pH6.5, 1 hr
  Production rate of Alvocidib: 73.5%
  Residual rate: 20.0%
[1]; pH6.5, 2 hr
  Production rate of Alvocidib: 87.1%
  Residual rate: 3.8%
[1]; pH6.5, 3 hr
  Production rate of Alvocidib: 90.0%
  Residual rate: 0.9%
[1]; pH7.0, 0 hr
  Production rate of Alvocidib: 0.5%
  Residual rate: 97.8%
[1]; pH7.0, 0.5 hr
  Production rate of Alvocidib: 82.2%
  Residual rate: 9.3%
[1]; pH7.0, 1 hr
  Production rate of Alvocidib: 89.7%
  Residual rate: 1.3%
[1]; pH7.0, 2 hr
  Production rate of Alvocidib: 91.0%
  Residual rate: 0.0%
[1]; pH7.0, 3 hr
  Production rate of Alvocidib: 91.0%
  Residual rate: 0.0%
[1]; pH7.4, 0 hr
  Production rate of Alvocidib: 1.3%
  Residual rate: 97.2%
[1]; pH7.4, 0.5 hr
  Production rate of Alvocidib: 90.5%
  Residual rate: 0.8%
[1]; pH7.4, 1 hr
  Production rate of Alvocidib: 91.2%
  Residual rate: 0.0%
[1]; pH7.4, 2 hr
  Production rate of Alvocidib: 91.4%
  Residual rate: 0.0%
[1]; pH7.4, 3 hr
  Production rate of Alvocidib: 92.1%
  Residual rate: 0.0%
[2]; up to 4 weeks
  Stability / conversion to Alvocidib in solution formulation at pH 3: stable
[2]; pH 4, 5° C., up to 4 weeks
  Stability / conversion to Alvocidib in solution formulation at pH 4: gradually converted to Alvocidib
[2]; solution formulation pH 5, 5° C., after 4 weeks
  production rate of Alvocidib / converted to Alvocidib: about 40%
[2]; pH3.0, 0 week
  Production rate of Alvocidib: 0.1%
  Residual rate: 99.6%
[2]; pH3.0, 1 week
  Production rate of Alvocidib: 0.2%
  Residual rate: 99.3%
[2]; pH3.0, 2 week
  Production rate of Alvocidib: 0.3%
  Residual rate: 99.5%
[2]; pH3.0, 4 week
  Production rate of Alvocidib: 0.6%
  Residual rate: 99.1%
[2]; pH4.0, 0 week
  Production rate of Alvocidib: 0.2%
  Residual rate: 99.4%
[2]; pH4.0, 1 week
  Production rate of Alvocidib: 1.2%
  Residual rate: 98.1%
[2]; pH4.0, 2 week
  Production rate of Alvocidib: 2.2%
  Residual rate: 97.4%
[2]; pH4.0, 4 week
  Production rate of Alvocidib: 4.8%
  Residual rate: 94.4%
[2]; pH5.0, 0 week
  Production rate of Alvocidib: 1.4%
  Residual rate: 98.1%
[2]; pH5.0, 1 week
  Production rate of Alvocidib: 13.7%
  Residual rate: 84.3%
[2]; pH5.0, 2 week
  Production rate of Alvocidib: 25.3%
  Residual rate: 71.7%
[2]; pH5.0, 4 week
  Production rate of Alvocidib: 39.4%
  Residual rate: 55.9%

## CNCCN(C)C(=O)Oc1cc(O)c2c(=O)cc(-c3ccccc3Cl)oc2c1[C@H]1CCN(C)C[C@H]1O [Comparative Example 14, reference compound]
[1]; pH5.0, 0 hr
  Production rate of Alvocidib: 1.2%
  Residual rate: 97.3%
[1]; pH 5, 37° C.
  Stability in buffer solution at pH 5: unstable
[1]; pH 5, 37° C., within 3 hours
  Conversion to Alvocidib at pH 5 within 3 hours: mostly converted to Alvocidib
[1]; pH5.0, 0.5 hr
  Production rate of Alvocidib: 17.9%
  Residual rate: 80.3%
[1]; pH5.0, 1 hr
  Production rate of Alvocidib: 31.1%
  Residual rate: 66.8%
[1]; pH5.0, 2 hr
  Production rate of Alvocidib: 53.7%
  Residual rate: 45.6%
[1]; pH5.0, 3 hr
  Production rate of Alvocidib: 68.5%
  Residual rate: 30.7%
[1]; pH5.5, 0 hr
  Production rate of Alvocidib: 1.4%
  Residual rate: 97.2%
[1]; pH5.5, 0.5 hr
  Production rate of Alvocidib: 44.2%
  Residual rate: 53.8%
[1]; pH5.5, 1 hr
  Production rate of Alvocidib: 67.2%
  Residual rate: 30.3%
[1]; pH5.5, 2 hr
  Production rate of Alvocidib: 88.5%
  Residual rate: 8.7%
[1]; pH5.5, 3 hr
  Production rate of Alvocidib: 93.9%
  Residual rate: 2.9%
[1]; pH6.0, 0 hr
  Production rate of Alvocidib: 1.9%
  Residual rate: 96.7%
[1]; pH6.0, 0.5 hr
  Production rate of Alvocidib: 88.1%
  Residual rate: 9.0%
[1]; pH6.0, 1 hr
  Production rate of Alvocidib: 95.7%
  Residual rate: 1.2%
[1]; pH6.0, 2 hr
  Production rate of Alvocidib: 97.0%
  Residual rate: 0.0%
[1]; pH6.0, 3 hr
  Production rate of Alvocidib: 97.1%
  Residual rate: 0.0%
[1]; pH6.5, 0 hr
  Production rate of Alvocidib: 3.2%
  Residual rate: 95.4%
[1]; pH6.5, 0.5 hr
  Production rate of Alvocidib: 97.0%
  Residual rate: 0.0%
[1]; pH6.5, 1 hr
  Production rate of Alvocidib: 96.7%
  Residual rate: 0.0%
[1]; pH6.5, 2 hr
  Production rate of Alvocidib: 98.2%
  Residual rate: 0.0%
[1]; pH6.5, 3 hr
  Production rate of Alvocidib: 97.6%
  Residual rate: 0.0%
[1]; pH7.0, 0 hr
  Production rate of Alvocidib: 6.9%
  Residual rate: 91.7%
[1]; pH7.0, 0.5 hr
  Production rate of Alvocidib: 96.8%
  Residual rate: 0.0%
[1]; pH7.0, 1 hr
  Production rate of Alvocidib: 96.8%
  Residual rate: 0.0%
[1]; pH7.0, 2 hr
  Production rate of Alvocidib: 96.7%
  Residual rate: 0.0%
[1]; pH7.0, 3 hr
  Production rate of Alvocidib: 96.7%
  Residual rate: 0.0%
[1]; pH7.4, 0 hr
  Production rate of Alvocidib: 14.2%
  Residual rate: 84.4%
[1]; pH7.4, 0.5 hr
  Production rate of Alvocidib: 97.3%
  Residual rate: 0.0%
[1]; pH7.4, 1 hr
  Production rate of Alvocidib: 97.2%
  Residual rate: 0.0%
[1]; pH7.4, 2 hr
  Production rate of Alvocidib: 97.2%
  Residual rate: 0.0%
[1]; pH7.4, 3 hr
  Production rate of Alvocidib: 97.2%
  Residual rate: 0.0%
[2]; up to 4 weeks
  Stability / conversion to Alvocidib in solution formulation at pH 3: gradually converted to Alvocidib
[2]; pH 5, 5° C., after 4 weeks
  Conversion to Alvocidib in solution formulation at pH 5 after 4 weeks: almost completely converted to Alvocidib
[2]; pH3.0, 0 week
  Production rate of Alvocidib: 1.3%
  Residual rate: 98.5%
[2]; pH3.0, 1 week
  Production rate of Alvocidib: 2.7%
  Residual rate: 97.1%
[2]; pH3.0, 2 week
  Production rate of Alvocidib: 3.9%
  Residual rate: 95.8%
[2]; pH3.0, 4 week
  Production rate of Alvocidib: 6.1%
  Residual rate: 93.6%
[2]; pH4.0, 0 week
  Production rate of Alvocidib: 2.2%
  Residual rate: 97.5%
[2]; pH4.0, 1 week
  Production rate of Alvocidib: 12.8%
  Residual rate: 86.7%
[2]; pH4.0, 2 week
  Production rate of Alvocidib: 21.1%
  Residual rate: 78.3%
[2]; pH4.0, 4 week
  Production rate of Alvocidib: 36.2%
  Residual rate: 63.0%
[2]; pH5.0, 0 week
  Production rate of Alvocidib: 13.2%
  Residual rate: 86.4%
[2]; pH5.0, 1 week
  Production rate of Alvocidib: 72.5%
  Residual rate: 25.7%
[2]; pH5.0, 2 week
  Production rate of Alvocidib: 90.1%
  Residual rate: 8.1%
[2]; pH5.0, 4 week
  Production rate of Alvocidib: 97.1%
  Residual rate: 1.1%
